Details: 100 kPa, Liquid; for electrical conductivity: Frequency=0.0006 MHz, Alternating current cell with electrodes; for viscosity: Concentric cylinders viscometry; for mass density: Vibrating tube method

C[N+](CCO)(CCO)CCO.O=S(=O)([N-]S(=O)(=O)C(F)(F)F)C(F)(F)F
Details	electrical conductivity [S/m]	mass density [kg/m3]	viscosity [mPa·s]
283.15 K	0.01	–	–
288.15 K	0.017	–	1283.1
289.15 K	–	1574.9	–
290.15 K	–	1574	–
291.15 K	–	1573.1	–
292.15 K	–	1572.2	–
293.15 K	0.025	1571.3	838.5
294.15 K	–	1570.4	–
295.15 K	–	1569.5	–
296.15 K	–	1568.6	–
297.15 K	–	1567.7	–
298.15 K	0.036	1566.8	568.8
299.16 K	–	1565.9	–
300.16 K	–	1565	–
301.15 K	–	1564.1	–
302.15 K	–	1563.2	–
303.15 K	0.05	1562.3	397.8
304.15 K	–	1561.4	–
305.15 K	–	1560.5	–
306.15 K	–	1559.6	–
307.15 K	–	1558.7	–
308.15 K	0.068	1557.8	285.9
309.15 K	–	1556.9	–
310.15 K	–	1556	–
311.15 K	–	1555.1	–
312.15 K	–	1554.2	–
313.15 K	0.09	1553.3	211.1
314.15 K	–	1552.4	–
315.15 K	–	1551.5	–
316.15 K	–	1550.6	–
317.15 K	–	1549.7	–
318.15 K	0.117	1548.8	158.7
319.15 K	–	1547.9	–
320.15 K	–	1547	–
321.15 K	–	1546.1	–
322.15 K	–	1545.2	–
323.15 K	0.149	1544.3	122
324.15 K	–	1543.4	–
325.15 K	–	1542.5	–
326.15 K	–	1541.6	–
327.15 K	–	1540.7	–
328.15 K	–	1539.8	95.6
329.15 K	–	1538.9	–
330.15 K	–	1538.1	–
331.15 K	–	1537.2	–
332.15 K	–	1536.3	–
333.15 K	–	1535.4	76.5
334.15 K	–	1534.5	–
335.16 K	–	1533.6	–
336.15 K	–	1532.8	–
337.15 K	–	1531.9	–
338.15 K	–	1531	61.7
339.15 K	–	1530.1	–
340.15 K	–	1529.2	–
341.15 K	–	1528.4	–
342.15 K	–	1527.5	–
343.15 K	–	1526.6	50.6
344.15 K	–	1525.8	–
345.15 K	–	1524.9	–
346.15 K	–	1524	–
347.15 K	–	1523.1	–
348.15 K	–	1522.3	42.1
349.15 K	–	1521.4	–
350.15 K	–	1520.5	–
351.15 K	–	1519.7	–
352.15 K	–	1518.8	–
353.15 K	–	1518	35.6
354.15 K	–	1517.1	–
355.15 K	–	1516.2	–
356.15 K	–	1515.4	–
357.15 K	–	1514.5	–
358.15 K	–	1513.6	30.1
359.15 K	–	1512.8	–
360.15 K	–	1511.9	–
361.15 K	–	1511.1	–
362.16 K	–	1510.2	–
363.15 K	–	1509.3	25.8

CCCC[N+](CCO)(CCO)CCO.O=S(=O)([N-]S(=O)(=O)C(F)(F)F)C(F)(F)F
Details	electrical conductivity [S/m]	mass density [kg/m3]	viscosity [mPa·s]
283.15 K	0.004	–	–
288.15 K	0.007	–	2752.6
289.15 K	–	1464.4	–
290.15 K	–	1463.6	–
291.15 K	–	1462.7	–
292.15 K	–	1461.8	–
293.15 K	0.011	1461	1684.4
294.15 K	–	1460.1	–
295.15 K	–	1459.2	–
296.15 K	–	1458.3	–
297.15 K	–	1457.5	–
298.15 K	0.016	1456.6	1072
299.16 K	–	1455.7	–
300.16 K	–	1454.9	–
301.15 K	–	1454	–
302.15 K	–	1453.1	–
303.15 K	0.024	1452.3	708.7
304.15 K	–	1451.4	–
305.15 K	–	1450.5	–
306.15 K	–	1449.7	–
307.15 K	–	1448.8	–
308.15 K	0.034	1447.9	484.5
309.15 K	–	1447.1	–
310.15 K	–	1446.2	–
311.15 K	–	1445.4	–
312.15 K	–	1444.5	–
313.15 K	0.046	1443.6	340.8
314.15 K	–	1442.8	–
315.15 K	–	1441.9	–
316.15 K	–	1441	–
317.15 K	–	1440.2	–
318.15 K	0.062	1439.3	245.9
319.15 K	–	1438.4	–
320.15 K	–	1437.6	–
321.15 K	–	1436.7	–
322.15 K	–	1435.8	–
323.15 K	0.082	1435	182
324.15 K	–	1434.1	–
325.15 K	–	1433.2	–
326.15 K	–	1432.4	–
327.15 K	–	1431.5	–
328.15 K	–	1430.6	137.7
329.15 K	–	1429.8	–
330.15 K	–	1428.9	–
331.15 K	–	1428.1	–
332.15 K	–	1427.2	–
333.15 K	–	1426.3	106.6
334.15 K	–	1425.5	–
335.16 K	–	1424.6	–
336.15 K	–	1423.8	–
337.15 K	–	1422.9	–
338.15 K	–	1422.1	83.5
339.15 K	–	1421.2	–
340.15 K	–	1420.4	–
341.15 K	–	1419.5	–
342.15 K	–	1418.7	–
343.15 K	–	1417.8	66.7
344.15 K	–	1417	–
345.15 K	–	1416.1	–
346.15 K	–	1415.3	–
347.15 K	–	1414.5	–
348.15 K	–	1413.6	54.1
349.15 K	–	1412.8	–
350.15 K	–	1411.9	–
351.15 K	–	1411.1	–
352.15 K	–	1410.3	–
353.15 K	–	1409.4	44.7
354.15 K	–	1408.6	–
355.15 K	–	1407.7	–
356.15 K	–	1406.9	–
357.15 K	–	1406.1	–
358.15 K	–	1405.2	37
359.15 K	–	1404.4	–
360.15 K	–	1403.6	–
361.15 K	–	1402.8	–
362.16 K	–	1401.9	–
363.15 K	–	1401.1	31.1
